Measured values published in ChEMBL document CHEMBL1201861, “Genomics of Drug Sensitity in Cancer screening data, Wellcome Trust Sanger Institute”.

Experiments:
DG-75 = test: cells; type: functional, cell-based, Homo sapiens; details: Homo sapiens, DG-75
Description: SANGER: Inhibition of human DG-75 cell growth in a cell viability assay.

LOUCY = test: cells; type: functional, cell-based, Homo sapiens; details: Homo sapiens, LOUCY
Description: SANGER: Inhibition of human LOUCY cell growth in a cell viability assay.

NCI-H1522 = test: cells; type: functional, cell-based, Homo sapiens; details: Homo sapiens, NCI-H1522
Description: SANGER: Inhibition of human NCI-H1522 cell growth in a cell viability assay.

NCI-H1694 = test: cells; type: functional, cell-based, Homo sapiens; details: Homo sapiens, NCI-H1694
Description: SANGER: Inhibition of human NCI-H1694 cell growth in a cell viability assay.

PF-382 = test: cells; type: functional, cell-based, Homo sapiens; details: Homo sapiens, PF-382
Description: SANGER: Inhibition of human PF-382 cell growth in a cell viability assay.

REH = test: cells; type: functional, cell-based, Homo sapiens; details: Homo sapiens, REH
Description: SANGER: Inhibition of human REH cell growth in a cell viability assay.

BC1 cell line = test: SANGER: Inhibition of human BC-1 cell growth in a cell viability assay.; type: functional, cell-based; details: Homo sapiens, BC1
TE-441-T = test: cells; type: functional, cell-based, Homo sapiens; details: Homo sapiens, TE-441-T
Description: SANGER: Inhibition of human TE-441-T cell growth in a cell viability assay.

CMK = test: cells; type: functional, cell-based, Homo sapiens; details: Homo sapiens, CMK
Description: SANGER: Inhibition of human CMK cell growth in a cell viability assay.

UACC-812 = test: cells; type: functional, cell-based, Homo sapiens; details: Homo sapiens, UACC-812
Description: SANGER: Inhibition of human UACC-812 cell growth in a cell viability assay.

Calu-3 = test: cells; type: functional, cell-based, Homo sapiens; details: Homo sapiens, Calu-3
Description: SANGER: Inhibition of human Calu-3 cell growth in a cell viability assay.

ChaGo-K-1 = test: cells; type: functional, cell-based, Homo sapiens; details: Homo sapiens, ChaGo-K-1
Description: SANGER: Inhibition of human ChaGo-K-1 cell growth in a cell viability assay.

DBTRG-05MG = test: cells; type: functional, cell-based, Homo sapiens; details: Homo sapiens, DBTRG-05MG
Description: SANGER: Inhibition of human DBTRG-05MG cell growth in a cell viability assay.

DK-MG = test: cells; type: functional, cell-based, Homo sapiens; details: Homo sapiens, DK-MG
Description: SANGER: Inhibition of human DK-MG cell growth in a cell viability assay.

DMS-273 = test: cells; type: functional, cell-based, Homo sapiens; details: Homo sapiens, DMS-273
Description: SANGER: Inhibition of human DMS-273 cell growth in a cell viability assay.

EFO-21 = test: cells; type: functional, cell-based, Homo sapiens; details: Homo sapiens, EFO-21
Description: SANGER: Inhibition of human EFO-21 cell growth in a cell viability assay.

HCC1569 = test: cells; type: functional, cell-based, Homo sapiens; details: Homo sapiens, HCC1569
Description: SANGER: Inhibition of human HCC1569 cell growth in a cell viability assay.

KYSE-70 cell line = test: cells; type: functional, cell-based, Homo sapiens; details: Homo sapiens, KYSE-70
Description: SANGER: Inhibition of human KYSE-70 cell growth in a cell viability assay.

M14 = test: cells; type: functional, cell-based, Homo sapiens; details: Homo sapiens, M14
Description: SANGER: Inhibition of human M14 cell growth in a cell viability assay.

MDA-MB-175-VII = test: cells; type: functional, cell-based, Homo sapiens; details: Homo sapiens, MDA-MB-175-VII
ME-180 = test: cells; type: functional, cell-based, Homo sapiens; details: Homo sapiens, ME-180
Description: SANGER: Inhibition of human ME-180 cell growth in a cell viability assay.

MIA PaCa-2 = test: cells; type: functional, cell-based, Homo sapiens; details: Homo sapiens, MIA PaCa-2
Description: SANGER: Inhibition of human MIA-PaCa-2 cell growth in a cell viability assay.

MKN-1 = test: cells; type: functional, cell-based, Homo sapiens; details: Homo sapiens, MKN-1
Description: SANGER: Inhibition of human MKN1 cell growth in a cell viability assay.

NCI-H1437 = test: cells; type: functional, cell-based, Homo sapiens; details: Homo sapiens, NCI-H1437
Description: SANGER: Inhibition of human NCI-H1437 cell growth in a cell viability assay.

NCI-H28 = test: cells; type: functional, cell-based, Homo sapiens; details: Homo sapiens, NCI-H28
Description: SANGER: Inhibition of human NCI-H28 cell growth in a cell viability assay.

NCI-H520 = test: cells; type: functional, cell-based, Homo sapiens; details: Homo sapiens, NCI-H520
Description: SANGER: Inhibition of human NCI-H520 cell growth in a cell viability assay.

OE19 = test: cells; type: functional, cell-based, Homo sapiens; details: Homo sapiens, OE19
Description: SANGER: Inhibition of human OE19 cell growth in a cell viability assay.

OVCAR-3 = test: cells; type: functional, cell-based, Homo sapiens; details: Homo sapiens, OVCAR-3
Description: SANGER: Inhibition of human OVCAR-3 cell growth in a cell viability assay.

Panc1005 = test: cells; type: functional, cell-based, Homo sapiens; details: Homo sapiens, Panc1005
Description: SANGER: Inhibition of human PANC-10-05 cell growth in a cell viability assay.

PC-14 = test: cells; type: functional, cell-based, Homo sapiens; details: Homo sapiens, PC-14
Description: SANGER: Inhibition of human PC-14 cell growth in a cell viability assay.

RPMI-2650 = test: cells; type: functional, cell-based, Homo sapiens; details: Homo sapiens, RPMI-2650
Description: SANGER: Inhibition of human RPMI-2650 cell growth in a cell viability assay.

SBC-5 = test: cells; type: functional, cell-based, Homo sapiens; details: Homo sapiens, SBC-5
Description: SANGER: Inhibition of human SBC-5 cell growth in a cell viability assay.

SW1417 = test: cells; type: functional, cell-based, Homo sapiens; details: Homo sapiens, SW1417
Description: SANGER: Inhibition of human SW1417 cell growth in a cell viability assay.

CWR22R = test: cells; type: functional, cell-based, Homo sapiens; details: Homo sapiens, 22Rv1
Description: SANGER: Inhibition of human 22RV1 cell growth in a cell viability assay.

BHY = test: cells; type: functional, cell-based, Homo sapiens; details: Homo sapiens, BHY
Description: SANGER: Inhibition of human BHY cell growth in a cell viability assay.

C32 = test: cells; type: functional, cell-based, Homo sapiens; details: Homo sapiens, C32
Description: SANGER: Inhibition of human C32 cell growth in a cell viability assay.

C3A = test: cells; type: functional, cell-based, Homo sapiens; details: Homo sapiens, C3A
Description: SANGER: Inhibition of human C3A cell growth in a cell viability assay.

CAL-51 = test: cells; type: functional, cell-based, Homo sapiens; details: Homo sapiens, CAL-51
Description: SANGER: Inhibition of human CAL-51 cell growth in a cell viability assay.

CAL-72 = test: cells; type: functional, cell-based, Homo sapiens; details: Homo sapiens, CAL-72
Description: SANGER: Inhibition of human CAL-72 cell growth in a cell viability assay.

VMRC-RCZ = test: cells; type: functional, cell-based, Homo sapiens; details: Homo sapiens, VMRC-RCZ
Description: SANGER: Inhibition of human VMRC-RCZ cell growth in a cell viability assay.

COLO-679 = test: cells; type: functional, cell-based, Homo sapiens; details: Homo sapiens, COLO-679
Description: SANGER: Inhibition of human COLO-679 cell growth in a cell viability assay.

COLO-680N = test: cells; type: functional, cell-based, Homo sapiens; details: Homo sapiens, COLO-680N
Description: SANGER: Inhibition of human COLO-680N cell growth in a cell viability assay.

## OCCCNc1cc(-c2ccnc(Nc3cccc(Cl)c3)n2)ccn1
DG-75
  IC50: 111 nM
LOUCY
  IC50: 62.2 nM
NCI-H1522
  IC50: > 256 nM
NCI-H1694
  IC50: > 256 nM
PF-382
  IC50: 104 nM
REH
  IC50: > 256 nM
BC1 cell line
  IC50: 69.5 nM
TE-441-T
  IC50: 38.4 nM
CMK
  IC50: > 256 nM

## N[C@@H](CSC(c1ccccc1)(c1ccccc1)c1ccccc1)C(=O)O [S-TRITYL-L-CYSTEINE]
DG-75
  IC50: > 5120 nM
LOUCY
  IC50: 480 nM
NCI-H1522
  IC50: > 5120 nM
NCI-H1694
  IC50: > 5120 nM
PF-382
  IC50: 1670 nM
REH
  IC50: > 5120 nM
BC1 cell line
  IC50: > 5120 nM
TE-441-T
  IC50: 4790 nM
CMK
  IC50: 1560 nM

## COc1cc(-c2nn([C@H]3CC[C@H](N4CCN(C(C)=O)CC4)CC3)c3ncnc(N)c23)ccc1NC(=O)c1cc2ccccc2n1C
DG-75
  IC50: > 5120 nM
LOUCY
  IC50: > 5120 nM
NCI-H1522
  IC50: > 5120 nM
NCI-H1694
  IC50: > 5120 nM
PF-382
  IC50: > 5120 nM
REH
  IC50: > 5120 nM
BC1 cell line
  IC50: > 5120 nM
TE-441-T
  IC50: > 5120 nM
CMK
  IC50: > 5120 nM

## COc1cc(N2CCN(C)CC2)ccc1Nc1ncc2c(n1)N(C)c1ccccc1C(=O)N2C
DG-75
  IC50: 5610 nM
LOUCY
  IC50: > 8000 nM
NCI-H1522
  IC50: > 8000 nM
NCI-H1694
  IC50: > 8000 nM
PF-382
  IC50: 4940 nM
REH
  IC50: > 8000 nM
BC1 cell line
  IC50: > 8000 nM
TE-441-T
  IC50: > 8000 nM
UACC-812
  IC50: > 8000 nM
CMK
  IC50: 3880 nM

## C#Cc1cccc(Nc2ncnc3cc(OCCOC)c(OCCOC)cc23)c1 [ERLOTINIB]
DG-75
  IC50: > 2000 nM
LOUCY
  IC50: > 2000 nM
NCI-H1694
  IC50: > 2000 nM
PF-382
  IC50: > 2000 nM
REH
  IC50: > 2000 nM
BC1 cell line
  IC50: > 2000 nM
TE-441-T
  IC50: > 2000 nM
UACC-812
  IC50: > 2000 nM
CMK
  IC50: > 2000 nM

## COc1cccc2c1C(=O)c1c(O)c3c(c(O)c1C2=O)C[C@@](O)(C(=O)CO)C[C@@H]3O[C@H]1C[C@H](N)[C@H](O)[C@H](C)O1 [DOXORUBICIN]
Calu-3
  IC50: 56 nM
ChaGo-K-1
  IC50: 108 nM
DBTRG-05MG
  IC50: 67.1 nM
DG-75
  IC50: 666 nM
DK-MG
  IC50: > 1020 nM
DMS-273
  IC50: 78.9 nM
EFO-21
  IC50: 362 nM
HCC1569
  IC50: 109 nM
KYSE-70 cell line
  IC50: 225 nM
LOUCY
  IC50: 21.3 nM
M14
  IC50: 905 nM
MDA-MB-175-VII
  IC50: 972 nM
ME-180
  IC50: 186 nM
MIA PaCa-2
  IC50: 34.2 nM
MKN-1
  IC50: 9.86 nM
NCI-H1437
  IC50: 64.6 nM
NCI-H1522
  IC50: > 1020 nM
NCI-H1694
  IC50: 200 nM
NCI-H28
  IC50: > 1020 nM
NCI-H520
  IC50: 267 nM
OE19
  IC50: 200 nM
OVCAR-3
  IC50: 470 nM
Panc1005
  IC50: 88.4 nM
PC-14
  IC50: 236 nM
PF-382
  IC50: 67.2 nM
REH
  IC50: 8.11 nM
RPMI-2650
  IC50: 13.7 nM
SBC-5
  IC50: 20.7 nM
SW1417
  IC50: 363 nM
CWR22R
  IC50: 21.2 nM
BC1 cell line
  IC50: 86.8 nM
BHY
  IC50: 28.9 nM
C32
  IC50: > 1020 nM
C3A
  IC50: 416 nM
CAL-51
  IC50: 17.3 nM
CAL-72
  IC50: 841 nM
TE-441-T
  IC50: 89.8 nM
UACC-812
  IC50: > 1020 nM
VMRC-RCZ
  IC50: 93.3 nM
CMK
  IC50: 77.4 nM
COLO-679
  IC50: 16 nM
COLO-680N
  IC50: 33.9 nM

## COc1cc2ncn(-c3cc(OCc4ccccc4C(F)(F)F)c(C(N)=O)s3)c2cc1OC [GW843682X]
DG-75
  IC50: 63.3 nM
LOUCY
  IC50: 15.9 nM
NCI-H1522
  IC50: > 256 nM
NCI-H1694
  IC50: 42 nM
PF-382
  IC50: 33.4 nM
REH
  IC50: > 256 nM
BC1 cell line
  IC50: 244 nM
TE-441-T
  IC50: > 256 nM
CMK
  IC50: 36 nM
